Laboratory results from patent US20250382556A1, “MODULATION OF THE BRANCHED-CHAIN METABOLITE CONTENT OF FRUITS AND VEGETABLES” (BOARD OF TRUSTEES OF MICHIGAN STATE UNIVERSITY, priority 2024, published 2025).

System: flowering quince peel
Experiment: Free amino acid content of flowering quince peel via UPLC-MS/MS after AHAS inhibitor treatment
Assay type: in vivo, Chaenomeles x superba
Parameters: key to free asparagine content compared to control / free aspartate content compared to control / free cysteine content compared to control / free glutamate content compared to control / free glutamine content compared to control / free glycine content compared to control / free lysine content compared to control / free phenylalanine content compared to control / free threonine content compared to control / free tryptophan content compared to control / free tyrosine content compared to control / free alanine content compared to control / free arginine content compared to control: —: Dash indicates no significant difference between treatments
Description: Whole apple fruit, freshly harvested and at an early stage of ripening (‘ripening’), were held at room temperature (22° C.) and rubbed daily with 3 mL of a freshly made 1mM solution of the inhibitor rimsulfuron (N-((4,6-dimethoxypyrimidin-2-yl)aminocarbonyl)-3-(ethylsulfonyl)-2-pyridinesulfonamide, made from DuPont MATRIX® SG, 25% w/w active ingredient; 0.1% Tween 20) or water solution containing 0.1% Tween 20 before preparation with further treatments. Flowering quince fruit were smaller than the apple fruit and had 2 mL of the control and treatment solutions applied daily at 22° C. ‘Gala’, ‘Empire’, and ‘Jonagold’ apple fruit were treated for four, nine, and seven days before further preparation, respectively. Flowering quince fruit were treated for six days before analysis. Headspace volatile emissions were monitored for three or four representative fruits during the incubation/treatment period to determine appropriate times for further treatments. During method testing, 1 mM solutions of the imidazolinone imazamox was also assessed with apple fruit (2-[4,5-dihydro-4-methyl-4-(1-methylethyl)-5-oxo-1H-imidazol-2-yl]-5-(methoxymethyl)-3-pyridinecarboxylic acid, made from RAPTOR®, 12.1% w/w active ingredient; 0.1% Tween 20).
After volatile analysis, apple peel disks, collected peel of flowering quince, and ‘Valery’ pulp section samples were held at −80° C. for further amino acid analysis.
Frozen samples were ground to a powder in liquid nitrogen-chilled mortar and pestles. About 500 mg of tissue was vortexed for 10 sec in 2 mL of room temperature (22° C.) extraction solution (1:1:1 water:acetonitrile:ethanol, v/v/v) spiked with 2 nmoles of U-^13C,^15N labeled amino acids (MilliporeSigma) as internal standards and heated for 15 min in a 65° C. water bath. Extracts were briefly chilled on ice before centrifugation at 4400×g for 15 min at 4° C. The supernatant was filtered by centrifugation (0.2 μm nylon centrifugal filter; Costar, Corning) at 21000×g for 5 min at room temperature. 10 μL of the filtrate was transferred to an autosampler vial and diluted 100-fold with 990 μL of 10.1 mM perfluorohexanoic acid (PFHA) spiked with […] of internal standard. Thus the final concentration of internal standard was ˜2 μM.
An amino acid standard series was prepared from a premade mixture (MilliporeSigma, AAS18) that contained equal molar amounts of cystine and all 20 proteinogenic amino acids save for tryptophan, asparagine, glutamine, and cysteine. An equal molar mixture of tryptophan, asparagine, glutamine, and cysteine was subsequently prepared. To avoid dilution errors or artefacts from differing buffers, these amino acid stocks were aliquoted and desiccated such that a five-part standard series ranging from 250 μM to 25 nM would be produced upon resuscitation with 10 μL of spiked extraction buffer and 990 μL spiked PFHA solution.
Samples and amino acids were held overnight at −20° C. before analysis. Amino acids were analyzed with a Xevo TQ-S Micro UPLC (H-Class)-MS/MS (Waters) at the Michigan State University Mass Spectrometry and Metabolomics Core. Conditions were as follows. HPLC column: Acquirt UPLC HSS T3, 2.1×100 mm, 1.7 μm particle size (Waters), with a 0.2 μm pre-column filter (Waters). Mobile phase: A) 10 mM PFHA in water, B) acetonitrile. LC gradient: linear gradient, slope setting=6, flow rate=0.3 mL·min^−1, step 1) 0 min, 100% A, 0% B, 2) 1 min, 100% A, 0% B, 3) 8 min, 35% A, 65% B, 4) 8.01 min, 10% A, 90% B, 5) 9 min, 10% A, 90% B, 6) 9.01 min, 100% A, 0% B, 7) 13 min, 100% A, 0% B. Column temp: 40° C. Autosampler temp: 10° C. Injection volume: 10 μL. Tune parameters: electrospray ionization, standard ESI probe, capillary voltage=+1.0 kV, source temp=120° C., desolvation temp=350° C., desolvation gas=800 L·hr^−1, cone gas=40 L·hr^−1. MS collection was split into three phases and were adjusted after checking the retention time of several samples; however proline was missed for apple and flowering quince samples. […]

[1] = Dr. Banks Pink flowering quince peel, 1 mM daily, six days

## CCS(=O)(=O)c1cccnc1S(=O)(=O)NC(=O)Nc1nc(OC)cc(OC)n1 [rimsulfuron, N-((4,6-dimethoxypyrimidin-2-yl)aminocarbonyl)-3-(ethylsulfonyl)-2-pyridinesulfonamide]
[1]
  free alanine content compared to control: —
  free arginine content compared to control: —
  free asparagine content compared to control: —
  free aspartate content compared to control: —
  free cysteine content compared to control: —
  free glutamate content compared to control: —
  free glutamine content compared to control: —
  free glycine content compared to control: —
  free histidine content compared to control: 166.5 ± 20.1%
  free isoleucine content compared to control: 51.3 ± 9.1%
  free leucine content compared to control: 81.9 ± 5.4%
  free lysine content compared to control: —
  free methionine content compared to control: 245.3 ± 38.5%
  free phenylalanine content compared to control: —
  free serine content compared to control: 302.1 ± 32.0%
  free threonine content compared to control: —
  free tryptophan content compared to control: —
  free tyrosine content compared to control: —
  free valine content compared to control: 28.1 ± 3.8%
Flowering quince peel tissue
  leucine content reduced: 18.1%
  total content of free amino acids: not significantly altered
  valine and isoleucine collectively reduced: 64.2%
